Results: US10301288B2, “Kinase inhibitors” (Topivert Pharma Limited, priority 2013, dated 2019)
Where two headings read alike, the source gives them in different places.

Experiments:
β-catenin = test: (m) Accumulation of β catenin in d-U937 cells; type: cell-based, human; settings: Reference Compound at 1 μg/mL defined as 100%
Summary of the method: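 PMA-differentiated (100 ng/mL, 48–72 hr) human U937 macrophage-type cells treated with test compound or vehicle for 18 hr. β-catenin measured by in-cell ELISA (anti-β-catenin, HRP secondary, TMB, OD450–655). Signal corrected for cell number by dividing by crystal violet OD595.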

[1] = Pharmacokinetics and colon distribution in rats; type: in vivo, male Wistar rats; settings: for concentration at 0.5 h: time cell blank (0.5 hr per method)
Procedure: 30 male Wistar rats were divided into two groups: Group I (p.o.: 5 mg/kg) and Group II (i.v.: 0.25 mg/kg). […] From each rat, blood samples (approximately 120 μL) were collected from retro orbital plexus such that samples were obtained at pre-dose, 0.05, 0.13, 0.25, 0.5, 1, 2, 4, 8, and 24 hr (i.v.) and pre-dose, 0.5, 1, 2, 4, 6, 8, 12 and 24 hr (p.o.). Immediately after collection, plasma was harvested from blood by centrifugation and stored at −70° C. until analysis. Following collection of blood sample, the animals (Group I) were humanely euthanized by carbon dioxide asphyxiation. The total colon was isolated, flushed with cold phosphate buffer saline (pH 7.4) to remove contents and weighed. The total colon tissues homogenized with ice-cold phosphate buffered saline, pH 7.4. Buffer volume to be used for homogenization was twice the weight of tissue. All the samples were stored below −70° C. until bioanalysis. Total colon tissue homogenate volume was three times. Plasma and total colon tissue samples were quantified by LC-MS/MS method (LLOQ in plasma and total colon tissue=0.5 ng/mL).

[2] = Hepatic microsomal stability, rat; type: in vitro ADME; settings: pooled liver microsomes, read-out: Mean intrinsic clearance
Procedure: • Microsomal stability assays were performed with incubations of test compounds at 0.1 μM (n=2, final DMSO concentration 0.25%), and carried out using pooled human, […], rat and Cynomolgus macaque hepatic microsomes from Xenotech (Lots 1210153, 0810143 and 1110042, respectively) at 0.25 mg protein/mL in the presence of cofactor, NADPH. The incubations were performed at 37° C. with 100 μL aliquots taken from the incubation, at 0, 2, 5, 10 and 20 minutes (and, in the case of Cynomolgus macaque hepatic microsomes, 40 minutes) and reactions terminated by addition of 100 μL of acetonitrile containing carbamazepine as analytical internal standard. […] Half-life values were calculated from the relationship T1/2 (min)=−0.693/λ • where λ was the slope of the Ln concentration vs time curve. • The in vitro intrinsic clearance, Clint (mL/min/kg), was calculated and scaled to hepatic extraction ratios using the following scaling parameters and formulae.
Formulae Clint(tissue clearance) mL/min/kg=[0.693/t½ (min)]×[1/microsomal protein concentration mg/mL]×[mg microsomes/g liver]×[g liver/kg body weight] […] Half-life values were calculated from the relationship T1/2 (min)=−0.693/λ • where λ was the slope of the Ln concentration vs time curve. • Standard compounds testosterone, midazolam and 4-methylumbelliferone are included in the assay design.

[3] = male, Wistar, colon, po, rat, 5 mg/kg p.o., read-out: Mean concentration, Colon
[4] = male, Wistar, plasma, po, rat, 5 mg/kg p.o., read-out: Mean concentration, Plasma
[5] = male, Wistar, plasma, Rat, 0.25 mg/kg intravenous
[6] = male, Wistar, po, Rat, 5 mg/kg p.o., Plasma
[7] = male, Wistar, po, Rat, 5 mg/kg p.o., Total colon

C#Cc1cc(Nc2nccc(Oc3ccc(NC(=O)Nc4cc(C(C)(C)C)nn4-c4ccc(C)cc4)c4ccccc34)n2)cc(C(=O)NCCOCCOCCOC)c1 [Example 2, 3-((4-((4-(3-(3-(tert-Butyl)-1-(p-tolyl)-1H-pyrazol-5-yl)ureido)naphthalen-1-yl)oxy)pyrimidin-2-yl)amino)-5-ethynyl-N-(2-(2-(2-methoxyethoxy)ethoxy)ethyl)-benzamide]
% β-catenin induction (β-catenin; 1 μg/mL): 0%
% β-catenin induction (β-catenin; 5 μg/mL): 2%
% β-catenin induction (β-catenin; 10 μg/mL): 0%
Fpo ([1]; Rat, 5 mg/kg p.o., Plasma): 0.04%
concentration at 1 h [1, 3]: 1.9 ng/g
concentration at 2 h [1, 3]: 4 ng/g
concentration at 4 h [1, 3]: 339 ng/g
concentration at 6 h [1, 3]: 1860 ng/g
concentration at 8 h [1, 3]: 2000 ng/g
concentration at 12 h [1, 3]: 597 ng/g
concentration at 24 h [1, 3]: 53.9 ng/g
concentration at 0.5 h [1, 3]: 3.3 ng/g
concentration at 1 h [1, 4]: 0.9 ng/mL
concentration at 2 h [1, 4]: 0.6 ng/mL
concentration at 4 h [1, 4]: 2.7 ng/mL
concentration at 6 h [1, 4]: 1.7 ng/mL
concentration at 8 h [1, 4]: 0.6 ng/mL
concentration at 12 h [1, 4]: 0.7 ng/mL
concentration at 24 h [1, 4]: 1.8 ng/mL
concentration at 0.5 h [1, 4]: 0.8 ng/mL
AUC(0-inf) [1, 5]: 691 ng·h/mL
AUC(0-t) [1, 5]: 682 ng·h/mL
C0 [1, 5]: 5360 ng/mL
Vd [1, 5]: 0.3 L/kg
clearance [1, 5]: 6.3 mL/min/kg
half-life [1, 5]: 2.2 h
AUC(0-t) [1, 6]: 4.8 ng·h/mL
Cmax [1, 6]: 2.7 ng/mL
Tmax [1, 6]: 4 h
AUC(0-inf) [1, 7]: 15800 ng·h/mL
AUC(0-t) [1, 7]: 15500 ng·h/mL
Cmax [1, 7]: 2000 ng/mL
Tmax [1, 7]: 8 h
Mean concentration, Colon ([1]; rat, 5 mg/kg p.o., Pre-dose): 0.0 ng/g
Mean concentration, Plasma ([1]; rat, 5 mg/kg p.o., Pre-dose): 0.0 ng/mL
microsomal CLint at 0.1 μM [2]: 199 µL/min/mg
